# Data as given in PMC10056485 (International Journal of Molecular Sciences, 2023).
# Several values for one entry are separate records, joined by “and”; a condition that tells them apart may be missing. Equal entries are not always repeated. Where two headings read alike, the source gives them in different places. Marks after values point to notes of the source that are not given here.
# Assays:
# [1] = metastatic renal cell carcinoma patients, cited from earlier work
# plasma protein = conditions: cited from earlier work
# tumor growth = conditions: combination of cabozantinib and irradiation, in vivo; cited from earlier work
# [2] = tested on: triple-negative 4T1 cells; conditions: combination of RT with cabozantinib, in vitro; cited from earlier work
# [3] = Organ distribution (biodistribution) of cabozantinib in rats with or without radiotherapy; type: in vivo, Sprague–Dawley rats; conditions: for Concentration of cabozantinib in brain / Concentration of cabozantinib in heart / Concentration of cabozantinib in kidney / Concentration of cabozantinib in liver / Concentration of cabozantinib in lung / Concentration of cabozantinib in spleen: rat, 6 mg/kg p.o. 3 days, six hours after administration
# Method: The whole liver was targeted for irradiation. […] The data were collected from six rats per group.
# Nine Gy was used to simulate the SBRT dose.
# The brain, liver, heart, spleen, lung and kidney were collected and weighed. These collected samples were stored at −20 °C until analysis.
# The thawed organ samples were homogenized in 50% aqueous acetonitrile (the ratio of sample weight to volume was 1:5), and the homogenate was centrifuged at 13,000× g for 10 min at 4 °C. The supernatant was collected, placed in brown Eppendorf tubes, and stored at −20 °C until analysis. Briefly, each organ sample (50 μL) was combined with 150 μL of IS solution (diethylstilbestrol) for protein precipitation. Finally, 20 μL of filtrate was subjected to HPLC analysis.
# [4] = design: method as in PMID 30649748; conditions: cited from earlier work
# [5] = Sprague-Dawley, rat, in vivo
# Method: (§1) The HPLC system consisted of a chromatographic pump (LC-20AT), an online injector (SIL-20C) equipped with a 10 μL sample loop to inject the sample and an ultraviolet detector (SPD-M20A). […] Biochanin A was used as the internal standard (IS), and the retention time of biochanin A was 3.8 min (Figure 4).
# (§2) A freely moving rat model was designed for the current study [19]. Briefly, the whole liver for the EBRT technique or central area 1.5 × 1.5 cm in size for the SBRT technique of rats was localized by computed tomography. For the whole liver field, the cranial margin was set 5 mm from the top of the diaphragm, and the caudal margin was set 5 mm lower than the liver margin. The whole liver was targeted for irradiation. […] The data were collected from six rats per group.
# (§3) A radiation dose of 2 Gy was considered the daily conventional dose or the off-target dose around the target that received an ablation RT dose. Nine Gy was used to simulate the SBRT dose. […] Rats were initially anesthetized with pentobarbital (50 mg/kg, i.p.) and remained anesthetized throughout the experimental period. After the surgery, the rats were placed in an experimental cage and allowed to recover for 1 day. Cabozatinib was dissolved in triply deionized water and administered (6 mg/kg, p.o.) to the rats (n = 6 per group).
# (§4) Blood samples were collected via polyethylene tubing (PE-50) implanted into the jugular vein of each rat in a heparin-rinsed vial. An aliquot of 100–120 µL of blood was collected at time intervals of 0, 5, 15, 30, 45, 60, 90, 120, 150, 180, 210 and 240 min following drug administration. At each time point, 200 μL of blood was drawn into heparin-rinsed Eppendorf tubes and then centrifuged at 13,000 rpm for 10 min at 4 °C to obtain plasma. Plasma was stored at −20 °C until analysis. Each collected blood sample was transferred to a heparinized microcentrifuge tube and centrifuged at 13,000 rpm for 10 min. The resulting plasma (50 μL) was then mixed with 150 μL of internal standard solution (10 μg/mL). The denatured protein precipitate was separated by vortexing for 20 s and centrifuged at 13,000 rpm for 10 min at 4 °C.
# (§5) Pharmacokinetic parameters, including the area under the concentration versus time curve (AUC), clearance (CL), elimination half-life (𝑡1/2), volume of distribution at steady state (Vss) and mean residence time (MRT), were calculated using the pharmacokinetics calculation software WinNonlin Standard Edition, Version 1.1 (Scientific Consulting, Apex, NC, USA) by a compartmental method. Relative bioavailability (RB %) = (AUCirradiated/AUCcontrol) × 100.
# [6] = cited from earlier work
# [7] = Pharmacokinetics of cabozantinib in plasma of freely moving rats with or without liver radiotherapy; conditions: for AUC(0-t): AUC0-T; for AUC(0-t) / Cmax / MRT / Tmax / Vss: rat plasma, 6 mg/kg p.o. q.d. 3 days
# Method: as §1, §2, §3, §4, §5
# [8] = cited from earlier work; remark: listed apart in the source
# [9] = rats, RT9Gy×3 f'x sequential compared to RT9Gy×3 f'x concurrent regimen, p = 0.02
# [10] = phase III study of HCC, cabozantinib alone
# [11] = Sprague-Dawley, rat, plasma, po, 6 mg/kg, RT 2Gy x 3 f'x concurrent
# [12] = Sprague-Dawley, rat, plasma, po, 6 mg/kg, RT 2Gy x 3 f'x sequential
# [13] = Sprague-Dawley, rat, plasma, po, 6 mg/kg, RT 9Gy x 3 f'x concurrent
# [14] = Sprague-Dawley, rat, plasma, po, 6 mg/kg, RT 9Gy x 3 f'x sequential
# [15] = Sprague-Dawley, rat, plasma, po, 6 mg/kg, cabozantinib only (no RT)
smiles,measurement,setting,value
COc1cc2nccc(Oc3ccc(NC(=O)C4(C(=O)Nc5ccc(F)cc5)CC4)cc3)c2cc1OC [cabozantinib],Grade 3–4 AE rate,[1]; cabozantinib concurrent with SBRT,3.6%
same,Grade 3–4 AE rate,[1]; cabozantinib concurrent with conventional RT,6.3%
same,Plasma protein binding,plasma protein,≥ 99.7%
same,Tumor growth control,tumor growth,not increased
same,Effect on clonogenic survival,[2],a synergistic effect was found
same,Concentration of cabozantinib in brain,[3]; RT 2Gy concurrent,0.00 ± 0.00 µg/mL or µg/g
same,Concentration of cabozantinib in heart,[3]; RT 2Gy concurrent,0.52 ± 0.39 µg/mL or µg/g
same,Concentration of cabozantinib in kidney,[3]; RT 2Gy concurrent,0.17 ± 0.06 µg/mL or µg/g
same,Concentration of cabozantinib in liver,[3]; RT 2Gy concurrent,0.39 ± 0.16 µg/mL or µg/g
same,Concentration of cabozantinib in lung,[3]; RT 2Gy concurrent,0.40 ± 0.34 µg/mL or µg/g
same,Concentration of cabozantinib in spleen,[3]; RT 2Gy concurrent,0.16 ± 0.03 µg/mL or µg/g
same,Concentration of cabozantinib in brain,[3]; RT 2Gy sequential,0.00 ± 0.00 µg/mL or µg/g
same,Concentration of cabozantinib in heart,[3]; RT 2Gy sequential,0.26 ± 0.11 µg/mL or µg/g
same,Concentration of cabozantinib in kidney,[3]; RT 2Gy sequential,0.29 ± 0.09 ^a µg/mL or µg/g
same,Concentration of cabozantinib in liver,[3]; RT 2Gy sequential,0.47 ± 0.18 µg/mL or µg/g
same,Concentration of cabozantinib in lung,[3]; RT 2Gy sequential,0.35 ± 0.19 µg/mL or µg/g
same,Concentration of cabozantinib in spleen,[3]; RT 2Gy sequential,0.16 ± 0.05 µg/mL or µg/g
same,Concentration of cabozantinib in brain,[3]; RT 9Gy concurrent,0.00 ± 0.00 µg/mL or µg/g
same,Concentration of cabozantinib in heart,[3]; RT 9Gy concurrent,0.16 ± 0.05 µg/mL or µg/g
same,Concentration of cabozantinib in kidney,[3]; RT 9Gy concurrent,0.16 ± 0.07 µg/mL or µg/g
same,Concentration of cabozantinib in liver,[3]; RT 9Gy concurrent,0.28 ± 0.14 µg/mL or µg/g
same,Concentration of cabozantinib in lung,[3]; RT 9Gy concurrent,0.16 ± 0.10 µg/mL or µg/g
same,Concentration of cabozantinib in spleen,[3]; RT 9Gy concurrent,0.20 ± 0.07 µg/mL or µg/g
same,Concentration of cabozantinib in brain,[3]; RT 9Gy sequential,0.00 ± 0.00 µg/mL or µg/g
same,Concentration of cabozantinib in heart,[3]; RT 9Gy sequential,0.29 ± 0.09 *^b µg/mL or µg/g
same,Concentration of cabozantinib in kidney,[3]; RT 9Gy sequential,0.30 ± 0.14 ^b µg/mL or µg/g
same,Concentration of cabozantinib in liver,[3]; RT 9Gy sequential,0.59 ± 0.24 ^b µg/mL or µg/g
same,Concentration of cabozantinib in lung,[3]; RT 9Gy sequential,0.36 ± 0.08 *^b µg/mL or µg/g
same,Concentration of cabozantinib in spleen,[3]; RT 9Gy sequential,0.16 ± 0.04 µg/mL or µg/g
same,Concentration of cabozantinib in brain,[3]; cabozantinib only (no RT),0.00 ± 0.00 µg/mL or µg/g
same,Concentration of cabozantinib in heart,[3]; cabozantinib only (no RT),0.14 ± 0.06 µg/mL or µg/g
same,Concentration of cabozantinib in kidney,[3]; cabozantinib only (no RT),0.22 ± 0.06 µg/mL or µg/g
same,Concentration of cabozantinib in liver,[3]; cabozantinib only (no RT),0.44 ± 0.19 µg/mL or µg/g
same,Concentration of cabozantinib in lung,[3]; cabozantinib only (no RT),0.25 ± 0.05 µg/mL or µg/g
same,Concentration of cabozantinib in spleen,[3]; cabozantinib only (no RT),0.12 ± 0.09 µg/mL or µg/g
same,Increase of biodistribution in the heart,"[3]; rats, RT2Gy×3 f'x concurrent regimen, printed as compared to the concurrent regimen, p = 0.04",271.4% and 271%
same,Increase of biodistribution in the lung,"[3]; rats, RT9Gy×3 f'x sequential compared to RT9Gy×3 f'x concurrent regimen, p = 0.004",125%
same,Increase of biodistribution in the heart,[3]; [9],81.3%
same,Increase of biodistribution in the liver,[3]; [9],110.5%
same,Increase of biodistribution in the kidneys,"[3]; rats, RT9Gy×3 f'x sequential compared to RT9Gy×3 f'x concurrent regimen, p = 0.048",87.5%
same,Increase of biodistribution in the heart,"[3]; rats, RT9Gy×3 f'x sequential regimen compared with control group, p = 0.01",107.1% and 107%
same,Increase of biodistribution in the lung,"[3]; rats, RT9Gy×3 f'x sequential regimen compared with control group, p = 0.02",44%
same,Detection of cabozantinib in the brain,"[3]; rats, any of the groups",No cabozantinib was detected
same,Increase of kidney biodistribution,"[3]; rats, sequential RT2Gy×3 f'x compared to control group, p = 0.02",31.8% and 32%
same,Osteonecrosis of jaw,[4],1%
same,Risk of grade 3 or above hemorrhagic events,[4],2.1–3%
same,Serious gastrointestinal perforation or fistula,[4],1.2–3%
same,Decrease of Tmax,[5],72.8%
same,Increase of CL,[5],249.0%
same,Increase of Tmax,[5],404.1%
same,Rate of grade 3 or 4 adverse events,[6]; cabozantinib alone for HCC treatment,10–17%
same,Serious adverse events rate,[6]; cabozantinib for HCC treatment,12%
same,Grade 3 or 4 diarrhea,[6]; [10],10%
same,Grade 3 or 4 fatigue,[6]; [10],10%
same,Grade 3 or 4 hypertension,[6]; [10],16%
same,Grade 3 or 4 increased aspartate aminotransferase level,[6]; [10],12%
same,Grade 3 or 4 palmar–plantar erythrodysesthesia,[6]; [10],17%
same,concentration at 60 min,"[7]; Sprague-Dawley, rat, plasma, po, 6 mg/kg",800 ng/mL
same,AUC(0-t),[7]; [11],5100 ng·h/mL
same,AUC(0-t),[7]; [12],3900 ng·h/mL
same,AUC(0-t),[7]; [13],4290 ng·h/mL
same,AUC(0-t),[7]; [14],4180 ng·h/mL
same,AUC(0-t),[7]; [15],4440 ng·h/mL
same,Cmax,[7]; [11],1600 ± 470 ng/mL
same,Cmax,[7]; [12],1360 ± 540 ng/mL
same,Cmax,[7]; [13],1370 ± 470 ng/mL
same,Cmax,[7]; [14],1350 ± 490 ng/mL
same,Cmax,[7]; [15],1440 ± 440 ng/mL
same,MRT,[7]; [11],13.7 h
same,MRT,[7]; [12],9.05 h
same,MRT,[7]; [13],11.2 h
same,MRT,[7]; [14],38.5 h
same,MRT,[7]; [15],26.7 h
same,Tmax,[7]; [11],0.611 h
same,Tmax,[7]; [12],3.08 h
same,Tmax,[7]; [13],0.639 h
same,Tmax,[7]; [14],2.92 h
same,Tmax,[7]; [15],2.25 h
same,Vss,[7]; RT 2Gy x 3 f'x concurrent,3.942 ± 1.303 L/kg
same,Vss,[7]; RT 2Gy x 3 f'x sequential,5.668 ± 2.22 L/kg
same,Vss,[7]; RT 9Gy x 3 f'x concurrent,4.204 ± 1.272 L/kg
same,Vss,[7]; RT 9Gy x 3 f'x sequential,3.153 ± 0.482 L/kg
same,Vss,[7]; cabozantinib only (no RT),4.831 ± 1.307 L/kg
same,Half-life,[8],approximately 110 h
same,Increase of AUC of cabozantinib,[8]; liver function impaired,63–81%
same,Time of second absorption peak after administration,[8]; plasma concentration–time profiles,approximately 24 h
same,Increase of AUC of cabozantinib,[8]; renal function impaired,7–30%
